Laboratory results reported in patent US6355785B1, “Guanosine-rich oligonucleotide integrase inhibitors” (Aronex Pharmaceuticals, Inc., priority 1993, dated 2002).
Read-outs that look alike come from different tables or passages of the source. Marks after values point to notes of the source that are not given here.

Key:
[1] = tested on: HIV-1 strains (SKI, RF, DV, IIIB, ADP/141); experiment: microbe, parasite or virus in culture; assay type: cell-based
[2] = Thermal denaturation of oligomer fold (UV, Tm); assay type: physicochemical
[3] = biological target: recombinant HIV-1 integrase (wild-type) (Human immunodeficiency virus type 1 group M subtype B, UniProt P12497); experiment: HIV-1 integrase 3′-processing and strand transfer assays; assay type: biochemical; design: Purified recombinant HIV-1 integrase enzyme (wild-type) was a generous gift from Dr. R. Craigie; purchased gift of Dr. R. Craigie, Laboratory of Molecular Biology, NIDDK (not bought)
Description: Integrase enzyme assays. Purified recombinant HIV-1 integrase enzyme (wild-type) was a generous gift from Dr. R. Craigie, Laboratory of Molecular Biology, National Institute of Diabetes and Digestive and Kidney Diseases. The enzyme (0.25 μM) was preincubated in reaction buffer at 20° C. for 30 minutes. All 3′-processing and strand-transfer reactions were performed as described previously by Fresen et al. (Fresen, et al., Proc. Natl. Acad. Sci. USA 90:2399-2403 (1993)) and Mazumder et al. (Mazumder, et al., Proc. Natl. Acad. Sci. USA 91:5771-5775 (1994)). Enzyme reactions were quenched by the addition of Maxam-Gilbert loading dye, and an aliquot was electrophoresed on a denaturing 20% polyacrylamide gel. Gels were then dried and subjected to autoradiography using Kodax XAR-2 film or exposed in a Molecular Dynamics Phospholmager cassette.
Integrase was preincubated at a final concentration of 200 (for HIV-1 and HIV-2) or 600 nM (for FIV and SIV) with inhibitor in reaction buffer (50 mM Nac1, 1 mM HEPES, pH 7.5, 50 μM dithiothreitol, 10% glycerol (wt/vol), 7.5 mM MnCl2 or MgCL2 (when specified), 0.1 mg/mL bovine serum albumin, 20 mM 2-mercaptoethanol, 10% dimethyl sulfoxide, and 25 mM MOPS, pH 7.2) at 30° C. for 30 minutes. When magnesium was used as the divalent metal ion, polyethylene glycol was added at a final concentration of 5% to increase activity as previously described (Engelman & Craigie, 1995). Preincubation for 30 minutes of the enzyme with inhibitor was performed to optimize increases the inhibitory activity in the 3′-processing reaction (Fesen et al., 1994). Then, 30 nM of the 5′-end ^32P-labeled linear oligonucleotide substrate was added, and incubation was continued for an additional 1 hr. The final reaction volume was 16 μL.
Electrophoresis and quantitation. Reactions were quenched by the addition of an equal volume […] of loading dye (98% deionized formamide, 10 mM EDTA, 0.025% xylene cyanol, 0.025% bromophenol blue). An aliquot (5 μL) was electrophoresed on a denaturing 20% polyacrylamide gel (0.09 M Tris-borate pH 8.3, 2 mM EDTA, 20% acrylamide, 8M urea). Gels were dried, exposed in a Molecular Dynamics Phosphorimager cassette, and analyzed using a Molecular Dynamics phosphorimager (Sunnyvale, Calif.). Percent inhibition was calculated using the following equation:
where C, N, and D are the fractions of 21mer substrate converted to 19mer (3′-processing product) or strand transfer products for DNA alone, DNA plus integrase, and integrase plus drug, respectively.
Antiviral assay. The RF laboratory strain of HIV-1 was used to infect established cell lines for one hour at 37° C. prior to washing and resuspension in medium containing increasing concentrations of drug. […] Purified recombinant HIV-1 integrase enzyme (wild-type) was a generous gift from Dr. Craigie, Laboratory of Molecular Biology, NIDDK. All 3′-processing and strand-transfers were performed as described previously by Fresen et al. (Fresen et al. (1993) Proc. Natl. Acad. Sci. VSA 90, 2399-2403) and Mazurnder et al. (Mazumder et al. (1994) Proc. Natl. Acad. Sci. USA 91, 5771-75).

[4] = Oligomer folding by circular dichroism
HIV-1RF = experiment: HeLa-CD4-LTR-β-galactosidase cell virus infection assay; assay type: cell-based
HIV-1SKI = experiment: Single cycle analysis of HIV-1 cDNA, CEM-SS cells; assay type: cell-based; settings: 10- to 100-fold over IC50
HIV-1DV [5] = experiment: Analysis of HIV-1 RNA and DNA in single cycle assays, SUP T1; assay type: cell-based
HIV-1 RT = HIV-1 RT (Human immunodeficiency virus type 1 group M subtype B, UniProt P04585); experiment: In vitro inhibition of HIV-1 RT (kinetic analysis); assay type: biochemical
HIV-1DV [6] = experiment: HIV-1 p24 production in SUP T1 cells; assay type: cell-based
HIV-1 strain DV = experiment: HIV-1 induced syncytia formation assay in SUP T1 cells; assay type: cell-based
[7] = anti-HIV-1 virus production, read-out: Cell Culture IC50
[8] = cell culture, read-out: IC50 HIV-1RF
[9] = read-out: Enzyme IC50 3-′process
[10] = HIV-1 RF, CEM-SS or MT4, read-out: Antiviral Assay IC50 RF

5′-gtggttggtgggttggt-3′ (GTGGTTGGTGGGTTGGT; phosphorothioate termini, further chemistry not given here) [T30677, pPT variant T30177]
IC50 [1, 7]: > 40000 nM
IC50 [1, 8]: > 40000 nM
Tm ([2]; 1 mM KCl, calculated from linear fit Tm vs Log[KCl]): 17* ° C.
Tm ([2]; 10 mM KCl): 27 °C
Tm ([2]; 180 mM KCl): 40 °C
IC50 [3, 9]: 620 nM
IC50 ([3]; read-out: IC50 STR · TRA): 620 nM

5′-gggtgggtgggtgggt-3′ [T30695]
midpoint of K+ induced folding transition (CD, 264 nm) ([4]; KCl, 25° C., 20 mM Li3PO4): ~0.02 mM
midpoint of Rb+ induced folding transition (CD) ([4]; RbCl): 0.5 mM
IC50 [1, 7]: 70 nM
IC50 [1, 8]: 70 nM
Tm ([2]; 1 mM KCl): 67 °C
Tm ([2]; 10 mM KCl, calculated from linear fit): 87* ° C.
Tm ([2]; 180 mM KCl, calculated from linear fit): 110* ° C.
IC50 [3, 9]: 20 nM
IC50 ([3]; read-out: Enzyme IC50 Stran Trans): 60 nM
IC50 ([3]; read-out: IC50 3′-PROC): 43 ± 17 nM
IC50 ([3]; read-out: IC50 STR · TRA): 24 ± 4 nM

5′-GTGATGGGTGGGTGGGT-3′ (phosphorothioate termini, further chemistry not given here) [T30526, pPT, dA for dG, tetrad-disrupted mutant of T30177]
IC50 [1, 10]: 11700 nM
less potent than T30177 at inhibiting virus-infected cell β-galactosidase production (HIV-1RF): 10-15 fold
IC50 ([3]; strand transfer, read-out: Anti-Integrase Assay IC50 strand tran.): 123 nM

CC(C)OC(=O)c1cc(NC(=S)OC(C)C)ccc1Cl [UC38]
IC50 ([1]; HIV-1 IIIB, CEM-SS or MT4, read-out: Antiviral Assay IC50 IIIB): 90 nM
IC50 [1, 10]: 20 nM
IC50 ([1]; HIV-1 SKI, CEM-SS or MT4, read-out: Antiviral Assay IC50 SKI): 90 nM
viral cDNA 12 hours post-infection, drug added at time of infection (HIV-1SKI): no detectable viral DNA

5′-gtggtgggtgggtgggt-3′ (GTGGTGGGTGGGTGGGT; phosphodiester, 3'-propanolamine, further chemistry not given here) [I100-15, 17 mer PD, 3′-propanolamine]
viral DNA synthesis (PCR) (HIV-1DV [5]; 36 hr post-infection): minimal
HIV-1 specific transcript (RT-PCR) (HIV-1DV [5]; drug added at zero hours): reduced level of HIV-1 specific transcript
Ki (HIV-1 RT): > 5000 nM
IC50 (HIV-1 RT; read-out: ID50 (the source's name)): > 5000 nM
Percent p24 relative to infected untreated control, Day 7 (HIV-1DV [6]; 2.5 uM, drug removed day 4): 0.0%
Percent p24 relative to infected untreated control, Day 11 (HIV-1DV [6]; 2.5 uM, drug removed day 4): 0.0%
Percent p24 relative to infected untreated control, Day 4 (HIV-1DV [6]; 2.5 uM, medium replaced day 4): 0.0%
IC50 (HIV-1DV [6]; SUP T1, HIV-1DV, four days): 80 nM
T.I. (therapeutic index) (HIV-1 strain DV): >200
IC50 (HIV-1 strain DV; SUP T1, HIV-1DV, four days, read-out: IC50 Syn (syncytium inhibition)): 125 nM
IC50 (HIV-1 strain DV; size variants of I100-15, read-out: IC50 Syn.): 160 nM
